Experimental data reported in the NIST ThermoML archive (doi:10.1016/j.jct.2016.05.019).
Several values for one entry are separate records, joined by “and”; a condition that tells them apart may be missing. Equal entries are not always repeated. Numbers after ± are expanded uncertainties.

Settings: Liquid; for mass density: Bellows volumetry

CCC(C)C [2-methylbutane]
Settings	mass density
280 K, 1000 kPa	633.54 ± 0.7 kg/m3
280 K, 2000 kPa	634.7 ± 0.7 kg/m3
280 K, 3000 kPa	635.86 ± 0.7 kg/m3
280 K, 5000 kPa	638.02 ± 0.7 kg/m3
280 K, 10000 kPa	643.42 ± 0.71 kg/m3
280 K, 20000 kPa	653.11 ± 0.72 kg/m3
280 K, 30000 kPa	661.46 ± 0.73 kg/m3
280 K, 40000 kPa	669.03 ± 0.74 kg/m3
280 K, 50000 kPa	675.94 ± 0.74 kg/m3
280 K, 60000 kPa	682.44 ± 0.75 kg/m3
280 K, 70000 kPa	688.43 ± 0.76 kg/m3
280 K, 80000 kPa	694.03 ± 0.76 kg/m3
280 K, 90000 kPa	699.3 ± 0.77 kg/m3
280 K, 100000 kPa	704.35 ± 0.77 kg/m3
280 K, 120000 kPa	713.77 ± 1 kg/m3
280 K, 140000 kPa	722.2 ± 1 kg/m3
280 K, 160000 kPa	729.89 ± 1 kg/m3
280 K, 180000 kPa	737.33 ± 1 kg/m3
280 K, 200000 kPa	744.07 ± 1 kg/m3
298.14 K, 10200 kPa	627.35 ± 0.69 kg/m3
298.14 K, 40600 kPa	656.53 ± 0.72 kg/m3
298.14 K, 101400 kPa	694.83 ± 0.76 kg/m3
298.14 K, 177400 kPa	727.57 ± 0.8 kg/m3
300 K, 1000 kPa	613.77 ± 0.68 kg/m3
300 K, 2000 kPa	615.18 ± 0.68 kg/m3
300 K, 3000 kPa	616.54 ± 0.68 kg/m3
300 K, 5000 kPa	619.26 ± 0.68 kg/m3
300 K, 10000 kPa	625.53 ± 0.69 kg/m3
300 K, 20000 kPa	636.61 ± 0.7 kg/m3
300 K, 30000 kPa	646.19 ± 0.71 kg/m3
300 K, 40000 kPa	654.71 ± 0.72 kg/m3
300 K, 50000 kPa	662.36 ± 0.73 kg/m3
300 K, 60000 kPa	669.45 ± 0.74 kg/m3
300 K, 70000 kPa	675.91 ± 0.74 kg/m3
300 K, 80000 kPa	682.03 ± 0.75 kg/m3
300 K, 90000 kPa	687.64 ± 0.76 kg/m3
300 K, 100000 kPa	692.98 ± 0.76 kg/m3
300 K, 120000 kPa	702.76 ± 0.77 kg/m3
300 K, 140000 kPa	711.75 ± 0.78 kg/m3
300 K, 160000 kPa	719.81 ± 0.79 kg/m3
300 K, 180000 kPa	727.5 ± 0.8 kg/m3
300 K, 200000 kPa	734.71 ± 0.81 kg/m3
320 K, 199 kPa	592.04 ± 0.65 kg/m3
320 K, 210 kPa	592.07 ± 0.65 kg/m3
320 K, 315 kPa	592.25 ± 0.65 kg/m3
320 K, 502 kPa	592.61 ± 0.65 kg/m3
320 K, 1000 kPa	593.5 ± 0.65 kg/m3 and 592.72 ± 0.65 kg/m3
320 K, 2000 kPa	595.25 ± 0.65 kg/m3 and 594.35 ± 0.65 kg/m3
320 K, 3000 kPa	596.07 ± 0.66 kg/m3
320 K, 5000 kPa	599.33 ± 0.66 kg/m3
320 K, 10000 kPa	606.77 ± 0.67 kg/m3
320 K, 20000 kPa	619.58 ± 0.68 kg/m3
320 K, 30000 kPa	630.46 ± 0.69 kg/m3
320 K, 40000 kPa	639.89 ± 0.7 kg/m3
320 K, 50000 kPa	648.39 ± 0.71 kg/m3
320 K, 60000 kPa	656.03 ± 0.72 kg/m3
320 K, 70000 kPa	662.98 ± 0.73 kg/m3
320 K, 80000 kPa	669.62 ± 0.74 kg/m3
320 K, 90000 kPa	675.83 ± 0.74 kg/m3
320 K, 100000 kPa	681.48 ± 0.75 kg/m3
320 K, 120000 kPa	691.83 ± 0.76 kg/m3
320 K, 140000 kPa	701.5 ± 0.77 kg/m3
320 K, 160000 kPa	710.26 ± 0.78 kg/m3
320 K, 180000 kPa	718.37 ± 0.79 kg/m3
320 K, 200000 kPa	725.65 ± 0.8 kg/m3
323.13 K, 49030 kPa	645.8 ± 0.71 kg/m3
323.13 K, 98070 kPa	678.79 ± 0.75 kg/m3
323.13 K, 147100 kPa	703.2 ± 0.77 kg/m3
323.13 K, 196130 kPa	722.79 ± 0.8 kg/m3
340 K, 338 kPa	569.61 ± 0.63 kg/m3
340 K, 420 kPa	569.78 ± 0.63 kg/m3
340 K, 513 kPa	570.01 ± 0.63 kg/m3
340 K, 1000 kPa	571.14 ± 0.63 kg/m3 and 570.66 ± 0.63 kg/m3
340 K, 2000 kPa	572.85 ± 0.63 kg/m3
340 K, 3000 kPa	574.98 ± 0.63 kg/m3
340 K, 5000 kPa	578.97 ± 0.64 kg/m3
340 K, 10000 kPa	587.99 ± 0.65 kg/m3
340 K, 20000 kPa	602.92 ± 0.66 kg/m3
340 K, 30000 kPa	615.28 ± 0.68 kg/m3
340 K, 40000 kPa	625.82 ± 0.69 kg/m3
340 K, 50000 kPa	635.12 ± 0.7 kg/m3
340 K, 60000 kPa	643.45 ± 0.71 kg/m3
340 K, 70000 kPa	651.03 ± 0.72 kg/m3
340 K, 80000 kPa	658.05 ± 0.72 kg/m3
340 K, 90000 kPa	664.53 ± 0.73 kg/m3
340 K, 100000 kPa	670.52 ± 0.74 kg/m3
340 K, 120000 kPa	681.53 ± 0.75 kg/m3
340 K, 140000 kPa	691.52 ± 0.76 kg/m3
340 K, 160000 kPa	700.49 ± 0.77 kg/m3
340 K, 180000 kPa	708.89 ± 0.78 kg/m3
340 K, 200000 kPa	716.61 ± 0.79 kg/m3
360 K, 550 kPa	544.65 ± 0.6 kg/m3
360 K, 608 kPa	544.68 ± 0.6 kg/m3
360 K, 609 kPa	544.84 ± 0.6 kg/m3
360 K, 702 kPa	545.09 ± 0.6 kg/m3
360 K, 1000 kPa	545.87 ± 0.6 kg/m3 and 545.89 ± 0.6 kg/m3
360 K, 2000 kPa	548.79 ± 0.6 kg/m3
360 K, 3000 kPa	551.5 ± 0.61 kg/m3
360 K, 5000 kPa	556.57 ± 0.61 kg/m3
360 K, 10000 kPa	567.71 ± 0.62 kg/m3
360 K, 20000 kPa	585.18 ± 0.64 kg/m3
360 K, 30000 kPa	599.16 ± 0.66 kg/m3
360 K, 40000 kPa	610.91 ± 0.67 kg/m3
360 K, 50000 kPa	621.15 ± 0.68 kg/m3
360 K, 60000 kPa	630.27 ± 0.69 kg/m3

340 K
Settings	mass density [kg/m3]	vapor or sublimation pressure [kPa]
–	569.21 ± 0.63	328 ± 3
